Columns and labels:
[1] = test system: proinflammatory gene expression; assay: Proinflammatory gene expression (real time PCR) in PBMCs from ESRD patients; type: in vivo, human; details: ESRD patients treated with paricalcitol vs untreated ESRD hemodialysis patients
Description: (§1) Intracellular protein and mRNA levels were measured in PBMCs from ESRD patients on hemodialysis. Inclusion criteria were as follows: age >45 years; male sex; informed consent; and absence of active inflammatory, infectious, or malignant diseases at the initiation or during the study. This study was approved by the IIS-Fundación Jiménez Diaz Ethics Committee. Patients were enrolled after providing written informed consent. PBMCs were separated from whole blood samples (30 ml into EDTA tubes) by a density gradient centrifugation method using Ficoll density gradient centrifugation. In total, 50x10^6 of PBMCs were obtained from 30 ml of whole blood and 6x10^6 PBMCs were used to isolate protein, RNA and nuclear/cytosolic protein levels using the NE-PER Reagent (Pierce) following the manufacturer's instructions.
Total RNA was isolated from cells and mouse kidney samples with Trizol (Invitrogen). The cDNA was synthesized using the High-Capacity cDNA Archive Kit (Applied Biosystems) using 2 µg total RNA primed with random hexamer primers. […] The mRNA copy numbers were calculated for each sample by the instrument software using Ct value. Results are expressed in copy numbers, calculated relative to unstimulated cells or control mice, after normalization against 18S.

CIAP1-TRAF3 complex = assay: TRAF3 immunoprecipitation (ubiquitin-Lys-48, CIAP1) in TWEAK-stimulated HK2 cells; type: cell-based, Human; details: TWEAK 100 ng/ml, paricalcitol 15 umol/L
Description: (§2) Human kidney proximal tubule epithelial cells (HK2 cell line, ATCC CRL-2190) were grown in RPMI 1640 with 10% fetal bovine serum (FBS), 1% glutamine, 100 U/ml penicillin, 100 µg/ml streptomycin, 5 µg/ml insulin-transferrin-selenite and 36 ng/ml hydrocortisone in 5% CO2 at 37° C. When cells reached 60 to 70% confluence, they were serum-depleted for 24 hours before the experiment.
Cells were stimulated with 100ng/ml recombinant human soluble TWEAK (Millipore) or p-200 µg/ml cresyl-sulfate (Raymond Vanholder and Griet Glorieux, University of Gent, Belgium). Concentrations of TWEAK and p-cresyl-sulfate were based on previously published dose-response experiments (Poveda et al. 2014; Sanz et al. 2008). […] DMSO, used as a solvent in some cases, had no effect on cell viability or on gene expression levels.
Cells growing in tissue culture dish plates, were lysed in 300-500 µl Triton-NP-40 lysis buffer [50 mmol/L Tris-HCl pH 8, 150 mmol/L NaCl, 1 mmol/L phenylmethylsulphonylfluoride, 1% NP-40/IGEPAL, and a phosphatase-inhibitor cocktail (Set II, Calbiochem)], scraped off the dish and incubated 1 hour to 4°C with shaking. Cell lysates were precleared by incubating with 10 µl protein A-agarose bead slurries (0.5 mL agarose/2 mL phosphate-buffered saline) for 30 min at 4°C, and then centrifuged three times for 5 minutes at 2500 rpm, to wash supernatants. […]

RelB or p52/NF-κB2 = assay: p52 and RelB DNA binding activity in PBMCs from ESRD patients on hemodialysis; type: in vivo, human; details: PBMCs from paricalcitol-treated ESRD patients; RelB or p52 DNA binding activities
Description: as §1
Nuclear and cytoplasmic fractions were separated from renal tissues using the NE-PER Reagent (Pierce) following the manufacturer's instructions. In renal nuclear extracts, NF-κB2 and RelB DNA binding activity was measured by its binding to an oligonucleotide containing the NF-κB consensus site using a TransAM NF-κB Family kit (Active Motif) with an antibody that only recognizes active NF-κB2 p52 and RelB.

NF-κB2 = assay: Non-canonical NF-κB2 activation (western blot) in TWEAK-stimulated HK2 cells; type: cell-based, Human; details: 12 µM paricalcitol for 48 hours, TWEAK 100 ng/ml 6 hours
Description: as §2
Cells were stimulated with 100ng/ml recombinant human soluble TWEAK (Millipore) or p-200 µg/ml cresyl-sulfate (Raymond Vanholder and Griet Glorieux, University of Gent, Belgium). Concentrations of TWEAK and p-cresyl-sulfate were based on previously published dose-response experiments (Poveda et al. 2014; Sanz et al. 2008). In some experiments cells were preincubated for 48 hours with the paricalcitol 12 µmol/L (Abbott) prior to stimulation. DMSO, used as a solvent in some cases, had no effect on cell viability or on gene expression levels.
For western blot, cell (25 µg/lane) and kidney (100-150 µg/lane) protein extracts were separated on 6%-12% polyacrylamide-SDS gels under reducing conditions. […] Autoradiographs were scanned using the Gel Doc™ EZ imager and analyzed with the Image Lab 3.0 software (BioRad).

In the case of `C[C@H](/C=C/[C@H](C)C(C)(C)O)[C@H]1CC[C@H]2/C(=C/C=C3C[C@@H](O)C[C@H](O)C3)CCC[C@]12C` [paricalcitol], the “proinflammatory gene expression levels” value [1] is reported as “significantly lower”, the “TRAF3 ubiquitination and CIAP1-TRAF3 complex formation” value (CIAP1-TRAF3 complex) is reported as “prevented” and the NF-κB2 pathway activation (RelB or p52/NF-κB2) is reported as “inhibited”. For the same molecule, the “TWEAK-induced IKK-α phosphorylation, the increase in NIK, and p52 and RelB nuclear levels” value (NF-κB2) was “inhibited”.

— patent EP3748362A1, “IN VITRO METHOD FOR DETECTING RENAL DISEASE” (Fundacion Instituto De Investigacion Sanitaria Fundacion …, priority 2019, dated 2020)
